Data taken from patent US20100069340A1, “PHARMACEUTICAL COMPOSITIONS OF AN SRC KINASE INHIBITOR AND AN AROMATASE INHIBITOR” (Wyeth, priority 2008, published 2010).

Tests used:
MDA-MB-468 (ER neg) = assay: Cell proliferation assay, MDA-MB-468; format: cell-based; settings: Homo sapiens, MDA-MB-468, 72 h; 3 Day assay, complete medium (10% FCS)
Protocol: Cell lines were obtained from ATCC. Estrogen was obtained from SIGMA, 4-hydroxytamoxifen was obtained from SIGMA, Bosutinib was used for these studies. Charcoal-stripped serum and phenol red-free medium was obtained from Invitrogen. CellTiter Glo was obtained from Promega.
Cell cultures. Proliferation assays with cells in complete fetal calf serum were performed with medium containing phenol red. For all assays examining estrogen-dependence, cells were cultured in phenol red-free medium; DMEM/F12 (MCF7), RPMI1640 (MDA-MB-361, T47D) MEM (BT20, MDA-MB-231) McCoys5A modified (SKBR3), Leibowitz' L15 medium supplemented with 10 ng/mL insulin (MDA-MB-435 and MDA-MB-468) with 10% fetal bovine serum supplemented with glutamine and gentamicin. For proliferation assays, trypsinized cells were subjected to three cycles of centrifugation and resuspension in phenol red-free medium supplemented with charcoal stripped medium (5% final), glutamine and Pen/Strep. Cells were plated on day 0, with or without estrogen (10 nM final concentration). On day 1, 4-hydroxytamoxifen and SKI-606 or DMSO were added as a serial dilution. […] After mixing and two hours incubation on the bench, plates were read on an Envision reader. […] The 10 uM data point was dropped for these two lines since there was a clear plateau prior to the sharp drop in luminescence observed at 10 uM compound. […]

[1] = system: advanced or metastatic breast cancer; assay: Phase 2 open-label study of bosutinib, efficacy; format: in vivo, human; settings: 400 mg once-daily
Protocol: (§1) In a phase 2, open-label, study of bosutinib in subjects with advanced or metastatic breast cancer where bosutinib is given at 400 mg once-daily, 73 total patients were randomized. As of 9 Jun. […] All of the responding patients had ER/PgR+ metastatic disease, but were less heavily pretreated with chemotherapy than typical patients and none had received prior endocrine therapy. […] In that trial, the median PFS was 15 weeks for all patients, 15.6 weeks and 14.9 weeks in ER+ and/or PgR+ and ER+ and/or PgR+, HER2-patients subgroups, respectively. There were 51 ER/PgR+ patients enrolled in the trial and a little more than half had received prior endocrine therapy, out of them 33 patients were ER/PgR+, HER2-. The preliminary safety data available for 73 subjects as of 9 Jun. 2008 are consistent with data from other ongoing studies. TEAEs were most frequently associated with gastrointestinal disorders (diarrhea, 66%; nausea, 55%; vomiting, 47%; abdominal pain, 12%; dyspepsia, 10%), general disorders (fatigue, 26%, asthenia, 19%, peripheral oedema, 11%; pyrexia, 10%), infections and infestations (16%), metabolism disorders (ALT increase, 12%; AST increase, 12%, weight loss, 11%; anorexia, 18%), musculoskeletal disorders (anthralgia, 12%; back pain, 12%), headache (14%), and rash (14%). Out of all of these TEAEs, only gastrointestinal disorders (diarrhea, 64%; nausea, 51%; vomiting, 42%; abdominal pain, 10%), general disorders (fatigue, 16%, asthenia, 14%), metabolism disorders (ALT increase, 11%; AST increase, 10%; anorexia, 15%) and rash (10%) were considered at least possibly related to bosutinib.

[2] = Phase 2 open-label study of bosutinib, safety (TEAEs); format: in vivo, human; settings: 400 mg once-daily, 73 subjects
Protocol: as §1

## COc1cc(Nc2c(C#N)cnc3cc(OCCCN4CCN(C)CC4)c(OC)cc23)c(Cl)cc1Cl [bosutinib]
MDA-MB-468 (ER neg)
  IC50: 5 µM
[1]
  tumor shrinkage in the near response: 29%
[1]; 73 patients, responders plus stable disease ≧24 weeks
  clinical benefit: 27.4%
[1]; of 73 patients
  near response: 1
  partial response: 4 subjects
  stable disease ≧24 weeks: 13 patients
[1]; ER+ and/or PgR+ subgroup
  median PFS: 15.6 weeks
[1]; ER+ and/or PgR+, HER2- subgroup
  median PFS: 14.9 weeks
[1]; all patients
  median PFS: 15 weeks
[2]; all TEAEs
  TEAE ALT increase: 12%
  TEAE AST increase: 12%
  TEAE abdominal pain: 12%
  TEAE anorexia: 18%
  TEAE anthralgia: 12%
  TEAE asthenia: 19%
  TEAE back pain: 12%
  TEAE diarrhea: 66%
  TEAE dyspepsia: 10%
  TEAE fatigue: 26%
  TEAE headache: 14%
  TEAE infections and infestations: 16%
  TEAE nausea: 55%
  TEAE peripheral oedema: 11%
  TEAE pyrexia: 10%
  TEAE rash: 14%
  TEAE vomiting: 47%
  TEAE weight loss: 11%
[2]; related TEAEs
  TEAE ALT increase, at least possibly related to bosutinib: 11%
  TEAE AST increase, at least possibly related to bosutinib: 10%
  TEAE abdominal pain, at least possibly related to bosutinib: 10%
  TEAE anorexia, at least possibly related to bosutinib: 15%
  TEAE asthenia, at least possibly related to bosutinib: 14%
  TEAE diarrhea, at least possibly related to bosutinib: 64%
  TEAE fatigue, at least possibly related to bosutinib: 16%
  TEAE nausea, at least possibly related to bosutinib: 51%
  TEAE rash, at least possibly related to bosutinib: 10%
  TEAE vomiting, at least possibly related to bosutinib: 42%
